Measurements published in ChEMBL document CHEMBL1144597, “Synthesis and evaluation of aryl thioxothiazolidinone inhibitors of ADAMTS-5 (Aggrecanase-2)” (Bioorg Med Chem Lett, 2007).

Each compound was assayed against T1, A disintegrin and metalloproteinase with thrombospondin motifs 5 (Homo sapiens, UniProt Q9UNA0) (assay: Inhibition of ADAMTS5).
T1 sequence (Q9UNA0 whole entry): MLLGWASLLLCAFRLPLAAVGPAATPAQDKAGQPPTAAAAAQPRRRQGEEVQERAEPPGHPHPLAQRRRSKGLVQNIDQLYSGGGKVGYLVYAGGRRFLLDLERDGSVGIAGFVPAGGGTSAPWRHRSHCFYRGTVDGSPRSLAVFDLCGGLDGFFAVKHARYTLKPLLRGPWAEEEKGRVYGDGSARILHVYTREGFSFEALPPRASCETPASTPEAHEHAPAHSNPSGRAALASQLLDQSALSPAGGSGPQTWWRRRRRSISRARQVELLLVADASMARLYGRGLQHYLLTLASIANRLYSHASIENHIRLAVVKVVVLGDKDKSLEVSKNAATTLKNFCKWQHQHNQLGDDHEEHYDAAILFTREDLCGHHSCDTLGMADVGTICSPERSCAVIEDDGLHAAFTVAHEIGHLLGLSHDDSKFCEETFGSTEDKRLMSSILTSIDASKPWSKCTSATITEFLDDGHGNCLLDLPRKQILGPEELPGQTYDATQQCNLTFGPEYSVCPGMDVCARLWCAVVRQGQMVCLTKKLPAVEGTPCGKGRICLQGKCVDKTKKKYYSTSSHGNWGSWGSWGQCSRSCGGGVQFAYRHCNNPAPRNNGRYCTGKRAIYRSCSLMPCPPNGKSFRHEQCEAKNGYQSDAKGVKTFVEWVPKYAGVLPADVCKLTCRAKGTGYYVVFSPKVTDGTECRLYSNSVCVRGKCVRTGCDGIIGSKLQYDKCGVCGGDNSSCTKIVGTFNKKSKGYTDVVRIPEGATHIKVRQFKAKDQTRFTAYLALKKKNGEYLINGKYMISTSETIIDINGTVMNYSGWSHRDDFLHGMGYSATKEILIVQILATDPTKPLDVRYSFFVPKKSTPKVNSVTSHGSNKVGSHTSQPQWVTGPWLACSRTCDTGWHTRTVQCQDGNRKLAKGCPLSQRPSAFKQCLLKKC

Going from `CC(C)[C@H](C(=O)O)N1C(=O)/C(=C\c2ccc(OCc3ccccc3)c(OCc3ccccc3)c2)SC1=S` to `O=C(O)CN1C(=O)/C(=C\c2ccc(OCc3ccccc3)c(OCc3ccccc3)c2)SC1=S`, the IC50 rises from 1.1 µM to 6.7 µM (6.1-fold).

First: CC(C)(C)c1ccc(Oc2cccc(/C=C3/SC(=O)NC3=O)c2)cc1
Second: CC(C)(C)c1ccc(Oc2cccc(/C=C3/SC(=S)NC3=O)c2)cc1
The IC50 of the first is 4-fold higher: 6.8 µM for the first, 1.7 µM for the second.

Going from `O=C1NC(=S)S/C1=C/c1ccc(OCc2ccccc2)c(OCc2ccccc2)c1` to `CN1C(=O)/C(=C\c2ccc(OCc3ccccc3)c(OCc3ccccc3)c2)SC1=S`, the IC50 rises from 1.8 µM to greater than 67 µM. The first is the more potent here.

Compared with `O=C1NC(=S)S/C1=C/c1cccc(Oc2ccc(Cl)cc2)c1`, `Cc1ccc(Oc2cccc(/C=C3/SC(=S)NC3=O)c2)cc1` is 3-fold higher in IC50: 4.9 µM for the first, 14.8 µM for the second.

Compared with `O=C1NC(=O)/C(=C\c2cccc(Oc3cc(Cl)cc(Cl)c3)c2)N1`, `O=C1NC(=O)/C(=C\c2cccc(Oc3cc(Cl)cc(Cl)c3)c2)S1` is lower in IC50: greater than 67 µM for the first, 9.2 µM for the second. The second is the more potent here.

Compared with `COc1cc(/C=C2/SC(=S)NC2=O)ccc1OCc1ccc(Cl)cc1`, `COc1ccc(COc2ccc(/C=C3/SC(=S)NC3=O)cc2OC)cc1` is 3.3-fold higher in IC50: 3.5 µM for the first, 11.6 µM for the second.

`O=C1NC(=O)/C(=C\c2cccc(Oc3ccc(Cl)cc3)c2)N1` and `CC(C)(C)c1ccc(Oc2cccc(/C=C3/NC(=O)NC3=O)c2)cc1` cannot be ordered by IC50: greater than 67 µM for the first, greater than 67 µM for the second.

`O=C1/C(=C\c2ccc(OCc3ccccc3)c(OCc3ccccc3)c2)SC(=S)N1c1ccccc1` and `O=C1/C(=C\c2ccc(OCc3ccccc3)c(OCc3ccccc3)c2)SC(=S)N1Cc1ccccc1` cannot be ordered by IC50: greater than 67 µM for the first, greater than 67 µM for the second.

First: O=C1NC(=S)S/C1=C/c1cc(OCc2ccccc2)cc(OCc2ccccc2)c1
Second: O=C1NC(=S)S/C1=C/c1cccc(OCc2ccccc2)c1
The IC50 of the first is 14-fold lower: 1.4 µM for the first, 20.1 µM for the second. The first is the more potent here.

First: COc1ccc(Oc2cccc(/C=C3/SC(=S)NC3=O)c2)cc1
Second: O=C1NC(=S)S/C1=C/c1cccc(Oc2ccc(C(F)(F)F)cc2)c1
The IC50 of the first is 3.1-fold higher: 16.2 µM for the first, 5.3 µM for the second.

`CN1C(=O)NC(=O)/C1=C\c1cccc(Oc2ccc(Cl)cc2)c1` and `O=C1NC(=O)/C(=C\c2cccc(Oc3ccc(Cl)cc3)c2)S1` cannot be ordered by IC50: greater than 22 µM for the first, greater than 22 µM for the second.

`O=C(O)C(c1ccccc1)N1C(=O)/C(=C\c2cccc(Oc3ccc(Cl)c(Cl)c3)c2)SC1=S` (stereo unspecified) and `O=C(O)[C@@H](Cc1ccccc1)N1C(=O)/C(=C\c2cccc(Oc3ccc(Cl)c(Cl)c3)c2)SC1=S` are within 1.5-fold of each other in IC50: 1.3 µM for the first, 1.6 µM for the second.

Compared with `CCN1C(=O)/C(=C\c2ccc(OCc3ccccc3)c(OCc3ccccc3)c2)SC1=S`, `O=C(O)CCN1C(=O)/C(=C\c2ccc(OCc3ccccc3)c(OCc3ccccc3)c2)SC1=S` is lower in IC50: greater than 67 µM for the first, 5.3 µM for the second.

Compared with `CC(C)[C@H](C(=O)O)N1C(=O)/C(=C\c2cccc(Oc3ccc(Cl)c(Cl)c3)c2)SC1=S`, `O=C(O)CN1C(=O)/C(=C\c2cccc(Oc3ccc(Cl)c(Cl)c3)c2)SC1=S` is 6.2-fold higher in IC50: 1.8 µM for the first, 11.1 µM for the second.

Compared with `O=C1NC(=S)S/C1=C/c1cccc(Oc2ccc(Cl)c(Cl)c2)c1`, `O=C1NC(=O)/C(=C\c2cccc(Oc3ccc(Cl)c(Cl)c3)c2)S1` is 3.1-fold higher in IC50: 3.2 µM for the first, 10 µM for the second. The first is the more potent here.

`O=C(O)C(c1ccccc1)N1C(=O)/C(=C\c2ccc(OCc3ccccc3)c(OCc3ccccc3)c2)SC1=S` (stereo unspecified) and `O=C(O)[C@@H](Cc1ccccc1)N1C(=O)/C(=C\c2ccc(OCc3ccccc3)c(OCc3ccccc3)c2)SC1=S` are within 1.5-fold of each other in IC50: 0.9 µM for the first, 1.3 µM for the second.

First: O=C1NC(=S)S/C1=C/c1cccc(Oc2ccccc2)c1
Second: O=C1NC(=S)S/C1=C/c1cccc(Oc2cc(Cl)cc(Cl)c2)c1
The IC50 of the first is higher: greater than 22 µM for the first, 2.5 µM for the second.

`O=C1/C(=C\c2ccc(OCc3ccccc3)c(OCc3ccccc3)c2)SC(=S)N1CCc1ccccc1` and `COc1cc(/C=C2/SC(=S)NC2=O)ccc1OCc1ccccc1` cannot be ordered by IC50: greater than 67 µM for the first, greater than 22 µM for the second.
